This is an account of results in patent US20040028749A1, “Treating inflammation and associated complications” (priority 2000, published 2004).

In one series the test system is Human RBCs. Kind of series: OSCN^−/OCN^− effects on intact RBC glutathione, enzymes and hemolysis. The following applies: lysates and membranes of RBCs exposed to 100 μM OSCN^−/OCN^−; 10 mM DTT. It is filed as cell-based.
For series [1] the following is noted: intranasal 1 mM SCN^−, 1 mM Br^− or 100 μM NO2^−.
Procedure: The following experiment is performed to determine if by directly manipulating the relative substrate halide composition of the intrabronchial luminal contents, the severity of the resulting EPO-mediated oxidative damage and so the severity of the induced pathologies can be influenced. […] From the day before initiation of aerosol ovalbumin challenge, four groups of guinea pigs (n=15) are subjected to intranasal instillation of 300 μL of PBS (100 mM Cl^−), PBS+1 mM NaSCN, PBS+1 mM NaBr, or PBS+100 μmol NaNO2 in each nostril. Intranasal instillation is performed every 6 hours until the time of analysis. The numbers of animals in each group is determined from power calculations assuming unpaired design. A group size of 15 animals per group allows for detecting a change in Br—Y, PC50, and histologic severity index amongst the OVA-challenged animal of ≧125% of the S.D. of the experimental groups with 90% power, P<0.05.
As for Section VI, Example 10, pulmonary functions, and chloro-, bromo-, and NO2—Y in BAL and whole lung homogenates are determined. […] Multiple linear regression is used to determine factors responsible for changes in PC50 or histologic severity of airway damage. PC50 or histologic severity is treated as a continuous variable and correlated Br—Y and NO2—Y levels in BAL and whole lung by multiple regression.
In another series the test system is RBC ATPases. Kind of series: Oxidant inactivation of RBC membrane ATPase activity. The class given is biochemical, human. The following applies: even at 1 mM.
The test system of another series is mammalian cells. Nature of the series: Cytotoxicity of hypohalous acids for mammalian cells (51Cr release, hemolysis). It is filed as cell-based. The following applies: two hours exposure. The procedure: (§1) To determine how generation of HOSCN subserves the physiological function of EOs, i.e., to destroy tissue-invasive parasites, the following experiment was performed. Reagent grade HOSCN was generated by (i) adding human EPO (10 μg/mL) and 1 mM NaSCN to Hank's buffer, (ii) adding five 100 μM boluses of H2O2 at 3 minute intervals, (iii) adding 20 μg/mL of catalase to consume unreacted H2O2, and (iv) removing protein by filtration through a PM-10 membrane (Amicon). HOSCN was then assayed by TNB titration. Mammalian cells used included cultured human and porcine aortic endothelium, rat cardiac myocytes, P338D1 murine lymphoma, and RBCs. Freshly transformed S. mansoni schistosomules (obtained from James Kazura at Case Western University) were also used. Both were exposed to reagent HOSCN for two hours, then assayed for cytotoxicity by (i) ^51Cr release, (ii) hemolysis (mammalian cells) or (iii) light microscopy observations of granularity, lack of motion, and methylene blue dye exclusion (somules). Results in Table 1 indicate that HOSCN killed both schistosomules and host cells. Whereas HOCl and HOBr were equally toxic for host cells and somules, HOSCN was 10-15 times more toxic for the parasite.

Series [2] concerns S. mansoni schistosomules. Kind of series: Toxicity of hypohalous acids for schistosomules. The class given is cell-based. The following applies: for toxicity for the parasite relative to host cells: schistosomules vs mammalian cells; for LD50 for schistosomules: two hours exposure. The procedure:
as §1

Series [3] has as its system human EOs. Nature of the series: EO-mediated nitration and bromination of HPA. The class given is cell-based. The following applies: PMA-activated EOs; for EO-mediated nitration of HPA: 50 μM NO2^−, 100 μM Br^−. The procedure:
(§2) These studies were performed in the presence of CO2 (5% gas phase) and […] the medium (4.2 mM) to mimic a biologically relevant situation. Leukocytes ([…]) were incubated at 37° C. under 95% air, 5% CO2, in Medium A (Ca^2+/Mg^2+/phenol-free HBSS; Life Technologies, (Gaithersburg, Md.) supplemented with 100 μM NaBr, 50 μM L-arginine, and 200 μM DTPA, pH 7.4 final) in the absence or presence of NaNO2 (0<50 μM, as indicated in the figure legends). […] Cells were activated by addition of PMA (200 nM) and incubated for either 1 hour or the indicated time interval. In some experiments, EOs were activated in the presence of an exogenous NO source by addition of PAPA NONOate (Alexis) for 1 minute following PMA addition. Rates of NO flux were determined spectrophotometrically by reaction of NO with oxyhemoglobin as described in Baek et al. (Baek et al. (1993) J Biol Chem 268:21120) under the identical conditions used for experiments, but in the absence of any added cells. To maintain a final pH of 7.4 during experiments with PAPA NONOate, incubations were performed in Medium B (Medium A containing only 100 mM NaCl and supplemented with 20 mM sodium phosphate, pH 7.4). […] In some cases, leukocyte reaction mixtures also contained one of the following: 1 mM NaN3, 10 mM 3-aminotriazole (Atz), 300 nM catalase (Cat), 300 nM heat-inactivated catalase (hiCat), 10 μg/ml superoxide dismutase (SOD), 1 mM methionine (Met), or 1 mM N^α-acetyl lysine.
(§3) NO2—Y production by isolated EOs was quantified by reversed phase HPLC with photodiode array detection (see Wu et al. (1999) J Biol Chem 274:25933). […] The nitrated (NO2-HPA; 3-(4-hydroxy-3-nitrophenyl)propanoic acid), brominated (Br-HPA; 3-(3-bromo-4-hydroxyphenyl)propanoic acid), and chlorinated (Cl-HPA; 3-(3-chloro-4-hydroxyphenyl)propanoic acid) products of the tyrosine analog, HPA, were routinely quantified by reversed phase HPLC with electrochemical (coulometric) detection on an ESA CoulArray HPLC (Cambridge, Mass.) equipped with UV detector and electrochemical cells (eight channels) (Wu et al. (1999) J Biol Chem 274:25933). […] Authentic standards of NO2-HPA, Br-HPA, and Cl-HPA were prepared by reaction of HPA with a molar equivalent of ONOO^−, HOBr, or HOCl, respectively.
Use of this low molecular mass surrogate for a protein-bound tyrosine residue permitted more facile quantification of the relative capacity of EOs to promote aromatic nitration and halogenation reactions of phenolic targets.

In series [4] the test system is human EOs. Nature of the series: NO2—Y formation by activated human EOs. The following applies: agonist 100 nM, exogenous NO2^−. It is filed as cell-based. The procedure: as §2, with “HBSS;” for “HBSS; Life Technologies, (Gaithersburg, Md.) supplemented with 100 μM NaBr, 50 μM L-arginine, and 200 μM DTPA, pH 7.4 final) in the absence or presence of NaNO2 (0<50 μM, as indicated in the figure legends).”, “NO2—Y production by isolated EOs was quantified by reversed phase HPLC with photodiode array detection (see Wu et al. (1999) J Biol Chem 274:25933). […]” for “In some cases, leukocyte reaction mixtures also contained one of the following: 1 mM NaN3, 10 mM 3-aminotriazole (Atz), 300 nM catalase (Cat), 300 nM heat-inactivated catalase (hiCat), 10 μg/ml superoxide dismutase (SOD), 1 mM methionine (Met), or 1 mM N^α-acetyl lysine.”

For another series, the system named is activated EOs. Kind of series: NO2-HPA formation by activated EOs with exogenous NO donor. It is filed as cell-based, human. The procedure: as §2, §3
The target in the next series is EPO (Homo sapiens, UniProt P11678).
Another series relates to activated human EOs. The following applies: 5 mM azide.
In the next series the target is MPO (Homo sapiens, UniProt P05164). The following applies: pre-incubation of the enzyme solution.
Setting [5] is: high rates of NO flux (>2 μM/min).
The mark [6] stands for this setting: low rates of NO flux (<2 μM/min).

EPO, sequence (P11678 251-715 limits assumed): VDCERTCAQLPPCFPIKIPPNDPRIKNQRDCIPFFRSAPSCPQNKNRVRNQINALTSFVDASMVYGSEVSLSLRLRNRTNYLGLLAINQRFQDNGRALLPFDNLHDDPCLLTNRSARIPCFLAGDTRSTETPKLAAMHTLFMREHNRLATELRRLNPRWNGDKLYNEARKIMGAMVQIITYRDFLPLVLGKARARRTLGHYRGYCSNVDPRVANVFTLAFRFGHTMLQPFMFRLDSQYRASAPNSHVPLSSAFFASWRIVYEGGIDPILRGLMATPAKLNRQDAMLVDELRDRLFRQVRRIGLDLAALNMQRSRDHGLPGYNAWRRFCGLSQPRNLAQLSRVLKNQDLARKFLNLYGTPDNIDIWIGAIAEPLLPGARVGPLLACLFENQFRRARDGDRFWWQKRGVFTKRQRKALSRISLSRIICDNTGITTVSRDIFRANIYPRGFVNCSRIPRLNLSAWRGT
EPO, sequence (P11678 140-250 limits assumed): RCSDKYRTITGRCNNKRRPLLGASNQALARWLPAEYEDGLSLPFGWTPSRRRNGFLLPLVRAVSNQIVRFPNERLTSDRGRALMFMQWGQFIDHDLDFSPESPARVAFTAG
MPO, sequence (P05164 279-745 limits assumed): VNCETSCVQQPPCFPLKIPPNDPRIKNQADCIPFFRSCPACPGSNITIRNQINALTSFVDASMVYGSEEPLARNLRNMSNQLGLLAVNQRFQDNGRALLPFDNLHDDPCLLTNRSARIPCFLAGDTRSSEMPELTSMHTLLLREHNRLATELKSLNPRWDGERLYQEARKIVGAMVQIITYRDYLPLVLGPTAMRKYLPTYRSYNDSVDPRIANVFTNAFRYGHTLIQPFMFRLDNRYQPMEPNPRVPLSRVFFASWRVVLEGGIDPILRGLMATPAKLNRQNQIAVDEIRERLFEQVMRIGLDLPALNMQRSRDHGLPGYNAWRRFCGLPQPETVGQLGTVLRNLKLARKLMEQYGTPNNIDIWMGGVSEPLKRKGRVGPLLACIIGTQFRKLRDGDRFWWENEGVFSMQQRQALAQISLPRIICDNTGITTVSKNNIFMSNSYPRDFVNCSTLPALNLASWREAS
MPO, sequence (P05164 165-273 limits assumed): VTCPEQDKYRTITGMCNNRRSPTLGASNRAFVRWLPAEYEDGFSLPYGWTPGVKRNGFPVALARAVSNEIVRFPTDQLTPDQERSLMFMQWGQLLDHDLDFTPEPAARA
Procedure for EPO: To determine the relative time courses of HOSCN and cyanate generation, H2O2 was added to a reaction mixture containing phosphate buffered saline (PBS) with 1 mM KSCN, pH 7.4, and 0.4 μM EPO. H2O2 was added by continuous infusion at 50 μM/minute for 20 minutes to simulate the continuous generation of H2O2 by the respiratory burst of an activated EO. An aliquot was (i) removed from the reaction mixture prior to and at various time intervals after initiating addition of H2O2, (ii) supplemented with 40 μg/mL catalase to consume unreacted H2O2, and (iii) placed on ice until subsequent assay of oxidants and cyanate as described.
H2O2 was continuously infused at 50 μM/minute for 20 minutes, simulating the continuous generation of H2O2 by the respiratory burst of an activated EO. Aliquots were removed from the reaction mixture at one-minute intervals and catalase was added to destroy excess unreacted H2O2 prior to assay of TNB-reactive substances and cyanate.
Procedure for Human RBCs: After 30 minutes, cells were pelleted by centrifugation at 2000×g for 3 minutes and washed three times in ice-cold HEPES/Hanks' (H & H) buffer. […] RBC lysates and membranes were then prepared by hypotonic lysis and assayed for glutathione and glyceraldehyde-3-phosphate dehydrogenase (GAPDH), glutathione-S-transferase (GST), and lactate dehydrogenase (LDH) activity as described by Beutler (see Beutler (1974) Red Cell Metabolism A Manual of Biochemical Methods Grune and Stratton, Inc., Orlando, Fla.) and for ATPase activity as described below. Hemolysates were incubated for an additional 15 minute with or without 10 mM DTT and reassayed for GAPDH, GST, and ATPases.
Intracellular levels of the SH-containing oxidant scavenger glutathione were assayed. In addition, the activities of three enzymes, GST, GAPDH, and membrane ATPases, which are known to be vulnerable to SH-oxidation-based inactivation, as well as LDH which is not prone to such inactivation were assayed.
Procedure for MPO: Initial experiments utilized an NO-selective electrode (ISO-NO Mark II, World Precision Instruments, Sarasota, Fla.) to determine whether NO serves as a general substrate for peroxidases. Reactions were performed under conditions where peroxidases were present in catalytic amounts Experiments were performed at 25° C. by immersing the electrode in 10 mL of 0.2 M sodium phosphate buffer, pH 7.0, under air. NO was added to continuously stirred buffer solution from an NO-saturated stock and the rise and fall in NO concentration was continuously monitored using a chart recorder. To determine the effect of H202 and peroxidases on NO levels during steady state catalysis, 10 μl H202 (100 μM final) and 50 μL enzyme (150 nM final) were added to the reaction mixture. Where indicated, solutions were supplemented with NaCl (100 mM) and/or a cell-free O2^.−-generating system comprised of lumazine (0.4 mm) and bovine milk xanthine oxidase (XO, Boehringer Mannheim).
To examine the potential physiological significance of these observations, the effect of additional substrates on peroxidase-catalyzed consumption of NO was examined. MPO was initially used as a model peroxidase because of its abundance at sites of leukocyte recruitment and activation during inflammation and its well-known use of the abundant halide Cl^− as substrate.
Source text for RBC ATPases: Membrane preparations rather than intact RBC were used to allow all oxidants equal access to intra- and extracellular membrane components.

As to `O[C@H](CS)[C@H](O)CS` (racemic) [DTT, dithiothreitol], the “GST, GAPDH and ATPase activity after OSCN^−/OCN^− exposure” value in the series on Human RBCs is recorded as “completely restored the activities of all three enzymes”.

For the molecule `Br` [Br^−, bromide], the “levels of Br—Y and NO2—Y and severity of resulting asthma” value in [1] is “increase”.

For `OO` [H2O2, hydrogen peroxide], the “inactivation of RBC ATPases” value in the series with RBC ATPases is on record as “failed to inactivate ATPases”.

`OBr` [HOBr, hypobromous acid]: the “LD50 for mammalian cells” value with mammalian cells was 10 to 33 µM. Also, in series [2], the “toxicity for the parasite relative to host cells” value was “equally toxic” and the LD50 for schistosomules was determined as 10 µM.

On to `OCl` [HOCI, hypochlorous acid], for which the “LD50 for mammalian cells” value with mammalian cells was 10 to 33 µM. Further, in series [2], the “toxicity for the parasite relative to host cells” value is given as “equally toxic” and the LD50 for schistosomules amounted to 10 µM.

On to `N#CSO` [HOSCN], for which, in the series on mammalian cells, the “LD50 for mammalian cells” value lay in the range of 200 to 300 µM. For the same molecule, in series [2], the “toxicity for the parasite relative to host cells” value is given as 10-15 times and the LD50 for schistosomules was 20 µM.

For the molecule `CC(=O)N[C@@H](CCCCN)C(=O)O` [N-acetyl lysine, N^α-acetyl lysine], the “cell-dependent bromination of HPA” value in the series with human EOs [3] is on record as “lack of inhibition”.

In the case of `CSCC[C@H](NC=O)C(=O)N[C@@H](CC(C)C)C(=O)N[C@@H](Cc1ccccc1)C(=O)O` [N-formyl-methionyl-leucyl-phenylalanine], the “NO2—Y levels produced, less than with PMA-stimulated EOs” value in the series with human EOs [4] is 8 fold.

In the case of `O=NO` [NO2^−, nitrite], the “levels of Br—Y and NO2—Y and severity of resulting asthma” value in series [1] was “increase”.

Take `[N-]=[N+]=[N-].[Na+]` [azide, sodium azide]: the “EO-mediated nitration of HPA” value with human EOs [3] is reported as “inhibited”. Besides, the figures for the NO2-HPA formation result in the series with activated EOs (setting [5]) and with activated EOs (setting [6]) were “increasingly less sensitive to inhibition” and “inhibited”, respectively. Further, at EPO (azide 1 mM), the “generation of both HOSCN and OCN^−” value is given as “nearly completely blocked”. Moreover, the “HOSCN levels at plateau stage of progression curve” value on EPO (azide added during H2O2 infusion) is “abrupt collapse of HOSCN levels”. The “PMA-stimulated generation of HOSCN and OCN^−” value with activated human EOs is “severely attenuated”. Further, on MPO, the “NO consumption by MPO” value is “prevented”.

For the molecule `CSCC[C@H](N)C(=O)O` [methionine], in the series on human EOs [3], the “EO-mediated nitration of HPA” value is “inability of the HOBr scavenger methionine to affect nitration”.

B1: catalase: hydrogen peroxide scavenger (protein, UniProt P00432 2-527, looked up)
Catalase: ADNRDPASDQMKHWKEQRAAQKPDVLTTGGGNPVGDKLNSLTVGPRGPLLVQDVVFTDEMAHFDRERIPERVVHAKGAGAFGYFEVTHDITRYSKAKVFEHIGKRTPIAVRFSTVAGESGSADTVRDPRGFAVKFYTEDGNWDLVGNNTPIFFIRDALLFPSFIHSQKRNPQTHLKDPDMVWDFWSLRPESLHQVSFLFSDRGIPDGHRHMNGYGSHTFKLVNANGEAVYCKFHYKTDQGIKNLSVEDAARLAHEDPDYGLRDLFNAIATGNYPSWTLYIQVMTFSEAEIFPFNPFDLTKVWPHGDYPLIPVGKLVLNRNPVNYFAEVEQLAFDPSNMPPGIEPSPDKMLQGRLFAYPDTHRHRLGPNYLQIPVNCPYRARVANYQRDGPMCMMDNQGGAPNYYPNSFSAPEHQPSALEHRTHFSGDVQRFNSANDDNVTQVRTFYLKVLNEEQRKRLCENIAGHLKDAQLFIQKKAVKNFSDVHPEYGSRIQALLDKYNEEKPKNAVHTYVQHGSHLSAREKANL
For B1, the “EO-mediated nitration of HPA” value in the series on human EOs [3] was “inhibited”. The NO2-HPA formation entry is given as “increasingly less sensitive to inhibition” in the series with activated EOs (setting [5]) and “significantly attenuated” in the series on activated EOs (setting [6]).
